Where two headings read alike, the source gives them in different places.
What was measured:
[1] = cited from earlier work
[2] = pH dependence of fluorescence of fluorescein; format: physicochemical
Description: A preferred fluor is fluorescein.

[3] = tested on: most of the cell types tested
Description: Within 15 min after washing the dye away from the exterior of the cells, the intracellular pool of the dye is pumped out, either by an organic anion pump mechanism or by diffusion.
The cell staining assay utilized various cell lines and included P388D1 (mouse macrophage), HEPG2 (human liver), CV1 (monkey epithelial), ccd50sk (untransformed human fibroblast), Rat2 (rat fibroblast), MDCK (kidney cells), L6 (rat myoblast), L cells (mouse fibroblast), HeLa (human adenocarcinoma), skov3 (human ovarian adenocarcinoma), and skbr3 (human breast adenocarcinoma) cells. Other cell lines that were used included Jurkat (human T cell), H9 (human T cell), NIH3T3 (mouse fibroblast), HL60 (human T cell), and H4 (rat liver). All cell lines are commercially available from the American Type Culture Collection, Rockville, Md.
Cells were grown on 25 mm-#1 coverslips in media containing 25 mM HEPES, pH 7.3, (which helps maintain pH on the microscope) without phenol red (which can lead to high background fluorescence when working with living cells). Coverslips were used so that the high numerical aperture oil-immersion lenses on the microscope could be used. The coverslips were mounted onto "viewing chambers": 6-well petri dishes which have 22 mm holes drilled into the bottom. […]

[4] = known values of standard compounds used for the standard curve (Veith et al.)

Nc1ccccc1O [2-aminophenol]
Log Poct ([1]; octanol/water): 0.62

Nc1cccc(O)c1 [3-aminophenol]
Log Poct [1, 4]: 0.17

Nc1ccccc1 [aniline]
Log Poct [1, 4]: 0.9

O=C1OC2(c3ccc(O)cc3Oc3cc(O)ccc32)c2ccccc21 [fluorescein]
net charge ([2]; pH 5.0): net neutral charge | fluorescence at pH 5.0 relative to pH 7.5 ([2]; pH 5.0 vs pH 7.5): greater than an order of magnitude less fluorescent | net charge ([2]; pH 7.5): net negative charge | time in which the intracellular pool of the dye is pumped out [3]: ≤ 15 min | cell permeation of dye ([3]; not told): permeant to most of the cell types tested

Nc1ccccc1[N+](=O)[O-] [o-nitroaniline]
Log Poct [1, 4]: 1.44
